One compound from patent US20030078274A1, “Method of reducing neuronal injury or apoptosis” (priority 1999, published 2003) can be followed below.

For test [1], the system named is retinal ganglion cells (RGCs). Put plainly: Optic nerve axotomy model of glaucoma: RGC survival in vivo. Also noted: species or system Long-Evans rats. The source says:
As a model for studying treatment of glaucoma, damaged (axotomized) retinal ganglion cells were employed. Specifically, transection of the optic nerve close to the cell body causes apoptotic death of retinal ganglion cells (RGCs), similar to that found in glaucoma. […] Three days later, the left optic nerve was intraorbitally transected 1 mm from the globe. One day after axotomy, no remarkable change in the fluorescence pattern of RGCs was seen compared to that of controls. RGC density, as assessed by the number of fluorescently-labeled cells, began to decline between 4 and 7 days post axotomy. By 14 days, a substantial number of fluorescently-labeled RGCs appeared to have been lost. Morphologically, in whole-mounted retinas stained with cresyl violet, ganglion cell layer (GCL) of unlesioned control retinas manifest no apoptotic profiles or pyknotic nuclei. In contrast, by 10 days after axotomy, multiple degenerating cell bodies with pyknotic nuclei were apparent in the GCL, and the cell density in this layer appeared to be greatly diminished. When hydroxystilbamidine fluorescence in the GCL was quantified, in unlesioned control retinas the mean RGC density was 2533±104 cells/mm^2 (mean±SD). Within 14 days of axotomy, the mean RGC density decreased to 348±107 (14% of control).
One day after axotomy, activated (di-phosphorylated) p38 was visualized by immunocytochemistry in the RGC layer, but not in control retinas. By Western blotting, phosphorylated p38 was first detected 12 hours after axotomy and reached a maximum at 24 hours before decreasing. SB 203580 was administered intravitreally at the time of axotomy, and repeated at 5 days and 10 days.
Retrograde labeling of retinal ganglion cells. Adult male Long-Evans rats weighing 200 to 250 g were obtained from a local breeder and, for all experimental manipulations, were anesthetized with 1-2% isoflurane and 70% N2O. RGCs were retrogradely labeled with hydroxystilbamidine (Molecular Probes, Eugene, Oreg., also known as Fluoro-Gold™) to allow accurate counting of cell bodies as described in Vorwerk et al., Invest. Ophthalmol. Vis. Sci. 40:813-816. Rats were anesthetized and placed in a small stereotactic instrument. The skull was exposed and kept dry. The bregma was identified and marked, and a small window was drilled above the right hemisphere, leaving the dura intact.
Axotomy. Optic nerve axotomy was performed on the left eye 4 days after retrograde labeling. After incision of the dorsolateral conjunctiva, the lateral extraocular muscle was transected, and the optic nerve was exposed under a stereoscopic microscope. The optic nerve was then transected at a distance of about 1 mm from the eye bulb. During the operation, care was taken to avoid damage to the retinal blood supply.
Drug application. Intravitreal injections were carried out using a 33-gauge needle attached to a 25 μl syringe following pupil dilation with 1% atropine sulfate. The tip of the needle was inserted through the dorsal limbus of the eye under stereomicroscopic visualization. Injections were completed over a period of 1 min. Intravitreal injections of SB 203580 (Calbiochem, San Diego, Calif.), MK801 (Research Biochemicals International, Natick, Mass.) or control solutions (as an equal volume of saline diluent) were performed on operated eyes immediately after axotomy, and repeated 5 and 10 days post axotomy.
Quantification of axotomized RGC survival and histology. […]

A further test has as its system cultured RGCs. Briefly: NMDA-induced apoptosis in cultured RGCs. Type of test: cell-based, Long-Evans rats. Particulars: 1 μM; 300 μM NMDA/5 μM glycine for 18 hr. The method, then: Retinal cell cultures. Retinal cells were prepared from 6-10 day old Long-Evans rats as described in Leifer et al., Science 224:303-306 (1984). Briefly, following dissociation in papain, retinal cells were plated on poly-L-lysine-coated glass coverslips in Eagle's minimum essential medium. RGCs were identified by immunocytochemical staining using an anti-Thy-1 antibody (2G12), which is specific among rat retinal cells for the ganglion cells.
Assessment of NMDA-induced apoptosis in cultured RGCs. To induce predominantly apoptosis (See Bonfoco et al., Proc. Natl. Acad. Sci. USA 92:7162-7166 (1995); Dreyer et al., Neuroreport 6:942-944 (1995)), retinal cell cultures were exposed to 300 μM NMDA/5 μM glycine for 18 hr in high calcium (3 mM) medium. For specific labeling of RGCs, the cultures were incubated with anti-Thy-1 antibody for 1 hr. Following 3 washes with PBS, cells were incubated in goat-anti-mouse-IgG-FITC for 1 hr. For assessment of apoptosis, retinal cells were fixed, permeabilized and stained with 20 μg/ml propidium iodide for 5 min, as described in Ankarcrona et al., Neuron 15:961-973 (1995). Briefly, coverslips containing the cells were washed once with PBS and permeabilized with 85% methanol for 10 min. […] Apoptotic nuclei were scored in cells that were also stained by anti-Thy-1, and expressed as a fraction of total RGCs.

Take `C[S+]([O-])c1ccc(-c2nc(-c3ccc(F)cc3)c(-c3ccncc3)[nH]2)cc1` (centres unmarked) [SB 203580, 4-(4-fluorophenyl)-2-(4-methylsulfinylphenyl)-5-(4-pyridyl)-1H-imidazole]: the “neuroprotection of RGCs” value in test [1] (0.2 nmol intravitreal (corresponding to 1.6 μM), 14 days post axotomy) was “significant degree of neuroprotection”. Also, the “number of surviving RGCs” value in test [1] (10 nmol intravitreal, 14 days post axotomy, axotomy alone 348, control 2,511) is on record as 1,347 cells/mm^2; in test [1] (14 days post axotomy, intravitreal at axotomy, 5 and 10 days, dose series) it was “increased the number of surviving RGCs in a dose-dependent manner”. Further, in test [1] (SB 203580 added to MK801, intravitreal, axotomy), the “RGC protection on addition to MK801, compared with MK801 alone” value is recorded as “did not offer further protection”. The “survival of RGCs in the face of NMDA exposure” value with cultured RGCs is recorded as “significantly increased”.
